Holding throughout (assay type): in vivo
The test system of assay [1] is adult mosquitoes Anopheles funestus strain FUMOZ-R. The experiment in a line: Anopheles funestus test (ANPHFU surface treatment & contact assay). Particulars: surface concentration 20 mg/m^2, 30 minutes exposure, 24 hours after contact, read-out: mortality (efficacy). As to the method:
Anopheles funestus Test (ANPHFU Surface Treatment & Contact Assay)
(§1) Solvent: Aceton+2000 ppm rapeseed oil methyl ester (RME)
In order to produce a sufficient, active ingredient containing solution it is necessary to solve the test compound in the solvent-mix (acetone at 2 mg/ml/RME 2000 ppm). This solution is pipetted onto a glazed tile and after evaporation of the acetone, adult mosquitoes of the species Anopheles funestus strain FUMOZ-R (Hunt et al., Med. Vet. Entomol. 2005 Sep. 19(3): 271-275) are placed onto the dried surface. The exposure time is 30 minutes.
(§2) Mortality in percent (%) is determined 24 hours after contact of the insects to the treated surface. 100% mortality means that all tested insects are dead, whereas 0% means that no insect died.

The subject of assay [2] is green peach aphid (Myzus persicae). Nature of the assay: Myzus persicae spray test. Particulars: foliar, 120 h, Chinese cabbage leaf disks, after 5 days. How it is done:
Myzus persicae—Spray Test
Solvent: 78.0 parts by weight acetone • 1.5 parts by weight dimethylformamide
Emulsifier: alkylarylpolyglycol ether
To produce a suitable preparation of active compound, 1 part by weight of active compound is mixed with the stated amount of solvents and is diluted with water, containing an emulsifier concentration of 1000 ppm, to the desired concentration. Further test concentrations are prepared by dilution with emulsifier containing water.
Chinese cabbage (Brassica pekinensis) leaf disks infected with all instars of the green peach aphid (Myzus persicae), are sprayed with a preparation of the active ingredient of the desired concentration.
After 5 days mortality in % is determined. 100% means all aphids have been killed and 0% means none of the aphids have been killed.

Assay [3] deals with adult unfed cat fleas (Ctenocephalides felis). Nature of the assay: Ctenocephalides felis oral test. To be noted: 48 h, 100 ppm in citrated cattle blood, after 2 days. Put shortly:
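About 20 adult unfed cat fleas fed through parafilm on citrated cattle blood containing compound (from a DMSO concentrate). Blood held at 37° C, fleas at room temperature. Mortality in % scored after 2 days.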

In assay [4] the test system is fall armyworm larvae (Spodoptera frugiperda). The experiment in a line: Spodoptera frugiperda spray test. To be noted: 168 h, maize leaf sections, after 7 days. Put shortly: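 Percent larval kill read at day 7, from 0% (no caterpillars dead) to 100% (all dead). Larvae were placed on dried Zea mays leaf discs previously sprayed with test preparations made from an acetone/DMF solution diluted in 1000 ppm emulsifier-containing water.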

Assay [5] deals with Rhipicephalus (Boophilus) microplus larvae (strain Parkhurst, resistant against synthetic pyrethroids). The experiment in a line: Rhipicephalus (Boophilus) microplus in-vitro contact test, larval cattle tick. To be noted: after 48 hours, read-out: efficacy (larvae dead or moribund); for pest or weed control at 1 µg/cm2, 100 g/ha: 1 μg/cm^2 (=100 g/ha); for pest or weed control at 5 µg/cm2, 500 g/ha: 5 μg/cm^2 (=500 g/ha). Put shortly:
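Pyrethroid-resistant larvae (strain Parkhurst), 20–50 per tube, exposed by contact to a dried acetone film of compound (5 μg/cm² at 900 ppm) for 48 h at 27 °C and 85% humidity. Percent dead or moribund larvae scored from negative geotactic behaviour.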

Assay [6] relates to adult flies Musca domestica strain WHO-N. Nature of the assay: Musca domestica test (MUSCDO surface treatment & contact assay). Particulars: 24 hours after contact, read-out: mortality (efficacy); for mortality at 20 mg/m2: surface concentration 20 mg/m^2, 30 minutes exposure. How it is done: Musca domestica Test (MUSCDO Surface Treatment & Contact Assay)
as §1
In order to produce a sufficient, active ingredient containing solution it is necessary to solve the test compound in the solvent-mix (acetone at 2 mg/ml/RME 2000 ppm). This solution is pipetted onto a glazed tile and after evaporation of the acetone, adult flies of the species Musca domestica strain WHO-N are placed onto the dried surface. The exposure time is 30 minutes.
as §2

In assay [7] the test system is adult mosquitoes Aedes aegypti strain MONHEIM. The experiment in a line: Aedes aegypti test (AEDSAE surface treatment & contact assay). To be noted: 24 hours after contact, read-out: mortality (efficacy); for mortality at 4 mg/m2: surface concentration 4 mg/m^2, 30 minutes exposure; for mortality at 20 mg/m2: surface concentration 20 mg/m^2, 30 minutes exposure. How it is done: Aedes aegypti Test (AEDSAE Surface Treatment & Contact Assay)
as §1
In order to produce a sufficient, active ingredient containing solution it is necessary to solve the test compound in the solvent-mix (acetone at 2 mg/ml/RME 2000 ppm). This solution is pipetted onto a glazed tile and after evaporation of the acetone, adult mosquitoes of the species Aedes aegypti strain MONHEIM are placed onto the dried surface. The exposure time is 30 minutes.
as §2

The test system of assay [8] is adult engorged female ticks (Rhipicephalus microplus). Nature of the assay: Rhipicephalus (Boophilus) microplus injection test. Particulars: 168 h, 4 μg/animal, egg deposition after 7 days, read-out: efficacy (infertile eggs). Put shortly:
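Compound in DMSO (10 mg per 0.5 mL, then diluted with DMSO to test concentration); 1 μL injected into the abdomen of each of five engorged females, then held in a climate chamber. Fertile egg deposition checked at 7 days; efficacy 100% = all eggs infertile, 0% = all fertile.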

The structures appear in SMILES notation.

Broadly, the mortality is the percentage killed. Turning to `CC(NC(=O)c1cc(Cl)cc(C(F)(F)F)c1)c1nccnc1-c1ncccn1` (racemic) [Example I-10, (rac)-3-Chloro-N-(1-(3-(pyrimidin-2-yl)pyrazin-2-yl)ethyl)-5-(trifluoromethyl)benzamide], the mortality at 20 mg/m2 in assay [1], in assay [6] and in assay [7] was 80 to 100% each time. Further, the mortality at 100 g/ha in assay [2] and in assay [4] was 100% in each case. For the same molecule, in assay [3], the mortality at 100 ppm is 100%. In addition, the pest or weed control at 1 µg/cm2, 100 g/ha in assay [5] was 90%. Besides, in assay [5], the pest or weed control at 5 µg/cm2, 500 g/ha was 80%. Besides, the mortality at 4 mg/m2 in assay [7] fell in the range of 80 to 100%. In addition, the pest or weed control at 0.004 mg in assay [8] is 100%.
Turning to `CC(NC(=O)c1cc(C(F)(F)F)cc(C(F)(F)F)c1)c1nccnc1-c1ncccn1` (racemic) [Example I-8, (rac)-N-(1-(3-(Pyrimidin-2-yl)pyrazin-2-yl)ethyl)-3,5-bis(trifluoromethyl)benzamide], the mortality at 20 mg/m2 in assay [1], in assay [6] and in assay [7] was 80 to 100% throughout. The mortality at 100 g/ha in assay [2] and in assay [4] was 100% throughout. Besides, the mortality at 100 ppm in assay [3] came out at 100%. Further, the pest or weed control at 1 µg/cm2, 100 g/ha in assay [5] is 100%. In addition, the pest or weed control at 5 µg/cm2, 500 g/ha in assay [5] is 100%. Also, the mortality at 4 mg/m2 in assay [6] (surface concentration 4 mg/m^2, 30 minutes exposure) fell in the range of 80 to 100%; in assay [7], 80 to 100%. Also, the pest or weed control at 0.004 mg in assay [8] worked out at 100%.

Values taken from patent US12583851B2, “Heteroaryl-substituted pyrazine derivatives as pesticides” (Elanco Animal Health GmbH, priority 2019, dated 2026).
